The source made the active and inactive calls. The calls are words filed in the database; no cut-off is given here.
Legend:
Acetylcholinesterase [1] = molecular target: Acetylcholinesterase (Electrophorus electricus, UniProt O42275); assay: Inhibition of electric eel AChE using acetylthiocholine iodide as substrate preincubated for 5 mins followed by substrate addition by DTNB reagent based Ellman's method
[2] = molecular target: Cholinesterase (Equus caballus) (UniProt P81908); assay: Inhibition of equine serum BuChE using butyrylthiocholine iodide as substrate at 10 uM preincubated for 5 mins followed by substrate addition by DTNB reagent based Ellman's method relative to control; assay type: cell-free
Acetylcholinesterase [3] = molecular target: Acetylcholinesterase (Homo sapiens, UniProt P22303); assay: Inhibition of human AChE using acetylthiocholine iodide as substrate preincubated for 5 mins followed by substrate addition by DTNB reagent based Ellman's method
[4] = molecular target: Cholinesterase (Homo sapiens) (UniProt P06276); assay: Inhibition of human BuChE using butyrylthiocholine iodide as substrate at 10 uM preincubated for 5 mins followed by substrate addition by DTNB reagent based Ellman's method relative to control
in vitro = settings: PAMPA
BV-2 [5] = assay: Cytotoxicity against mouse BV-2 cells upto 10 uM incubated for 24 hrs by CCK-8 assay; assay type: toxicity, cell-based; settings: bv-2, 24 h
BV-2 [6] = assay: Activation of NRF2/ARE in mouse BV-2 cells assessed as upregulation of NRF2 expression at 7 uM by Western blotting analysis; assay type: cell-based; settings: filed as activator, TDE = time-dependent effect
BV-2 [7] = assay: Activation of NRF2/ARE in mouse BV-2 cells assessed as upregulation of nuclear NRF2 expression at 7 uM incubated for 4 hrs by Western blotting analysis; assay type: cell-based; settings: filed as activator
BV-2 [8] = assay: Activation of NRF2/ARE in mouse BV-2 cells assessed as upregulation of cytosolic NRF2 expression at 7 uM incubated for 10 hrs by Western blotting analysis; assay type: cell-based
BV-2 [9] = assay: Activation of NRF2/ARE in mouse BV-2 cells assessed as upregulation of NRF2 expression incubated for 8 hrs by Western blotting analysis; assay type: cell-based; settings: filed as activator
[10] = molecular target: T1, Nuclear factor erythroid 2-related factor 2 (Mus musculus) (UniProt Q60795); assay: Activation of NRF2 in mouse BV-2 cells assessed as increase in HO-1 protein expression incubated for 8 hrs by Western blotting analysis; assay type: cell-based; settings: filed as activator
T1 sequence (whole entry): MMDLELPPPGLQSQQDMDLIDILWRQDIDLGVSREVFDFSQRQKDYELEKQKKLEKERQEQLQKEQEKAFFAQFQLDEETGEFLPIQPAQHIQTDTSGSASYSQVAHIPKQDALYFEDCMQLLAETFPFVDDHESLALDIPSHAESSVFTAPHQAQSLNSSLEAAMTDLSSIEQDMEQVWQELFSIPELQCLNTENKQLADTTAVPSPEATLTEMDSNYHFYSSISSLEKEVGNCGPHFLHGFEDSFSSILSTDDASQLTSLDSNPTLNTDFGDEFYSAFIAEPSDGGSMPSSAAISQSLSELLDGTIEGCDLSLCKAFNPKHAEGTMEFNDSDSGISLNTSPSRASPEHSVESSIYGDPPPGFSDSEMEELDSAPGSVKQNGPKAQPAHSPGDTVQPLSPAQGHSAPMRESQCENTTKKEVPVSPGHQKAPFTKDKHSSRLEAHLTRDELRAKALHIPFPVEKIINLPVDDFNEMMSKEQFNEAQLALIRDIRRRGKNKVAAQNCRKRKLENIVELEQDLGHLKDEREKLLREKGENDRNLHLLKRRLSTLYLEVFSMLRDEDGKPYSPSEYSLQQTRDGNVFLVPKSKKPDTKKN

[11] = molecular target: T1, Nuclear factor erythroid 2-related factor 2 (Mus musculus); assay: Activation of NRF2 in mouse BV-2 cells assessed as increase in NQO1 protein expression incubated for 8 hrs by Western blotting analysis; assay type: cell-based; settings: filed as activator
[12] = molecular target: T1, Nuclear factor erythroid 2-related factor 2 (Mus musculus); assay: Activation of NRF2 in mouse BV-2 cells assessed as increase in GPX4 protein expression incubated for 8 hrs by Western blotting analysis; assay type: cell-based; settings: filed as activator
[13] = molecular target: T1, Nuclear factor erythroid 2-related factor 2 (Mus musculus); assay: Activation of NRF2 in mouse BV-2 cells assessed as increase in HO-1 protein expression at 7 uM by Western blotting analysis; assay type: cell-based; settings: filed as activator, TDE = time-dependent effect
[14] = molecular target: T1, Nuclear factor erythroid 2-related factor 2 (Mus musculus); assay: Activation of NRF2 in mouse BV-2 cells assessed as increase in NQO1 protein expression at 7 uM by Western blotting analysis; assay type: cell-based; settings: filed as activator, TDE = time-dependent effect
[15] = molecular target: T1, Nuclear factor erythroid 2-related factor 2 (Mus musculus); assay: Activation of NRF2 in mouse BV-2 cells assessed as increase in GPX4 protein expression at 7 uM by Western blotting analysis; assay type: cell-based; settings: filed as activator, TDE = time-dependent effect
[16] = molecular target: T1, Nuclear factor erythroid 2-related factor 2 (Mus musculus); assay: Activation of NRF2 in mouse BV-2 cells assessed as increase in HO-1 protein expression at 7 uM incubated for 3 to 9 hrs by Western blotting analysis; assay type: cell-based; settings: filed as activator, time 3-9 hrs
[17] = molecular target: T1, Nuclear factor erythroid 2-related factor 2 (Mus musculus); assay: Activation of NRF2 in mouse BV-2 cells assessed as increase in NQO1 protein expression at 7 uM incubated for 3 to 9 hrs by Western blotting analysis; assay type: cell-based; settings: filed as activator, time 3-9 hrs
[18] = molecular target: T1, Nuclear factor erythroid 2-related factor 2 (Mus musculus); assay: Activation of NRF2 in mouse BV-2 cells assessed as increase in GPX4 protein expression at 7 uM incubated for 3 to 9 hrs by Western blotting analysis; assay type: cell-based; settings: filed as activator, time 3-9 hrs
BV-2 [19] = assay: Cytoprotective activity against H2O2-induced toxicity in mouse BV-2 cells assessed as increase in cell viability incubated for 6 hrs by CCK-8 assay; assay type: functional, cell-based
BV-2 [20] = assay: Cytoprotective activity against H2O2-induced toxicity in mouse BV-2 cells assessed as decrease in ROS production incubated for 6 hrs by DCFH-DA staining based inverted fluorescence microscopic analysis; assay type: functional, cell-based
BV-2 [21] = assay: Anti-neuroinflammatory activity in mouse BV-2 cells assessed as reduction in LPS-induced NO production incubated for 6 hrs followed by LPS addition measured after 24 hrs by Griess reagent based assay; assay type: functional, cell-based; settings: time 30.0 hrs
BV-2 [22] = assay: Anti-neuroinflammatory activity in mouse BV-2 cells assessed as reduction in LPS-induced iNOS expression at 1 to 7 uM incubated for 6 hrs followed by LPS addition measured after 24 hrs by Western blotting analysis; assay type: functional, cell-based; settings: dose 1-7 µM, time 30.0 hrs
BV-2 [23] = assay: Anti-neuroinflammatory activity in mouse BV-2 cells assessed as reduction in LPS-induced COX-2 expression at 1 to 7 uM incubated for 6 hrs followed by LPS addition measured after 24 hrs by Western blotting analysis; assay type: functional, cell-based; settings: dose 1-7 µM, time 30.0 hrs
BV-2 [24] = assay: Anti-neuroinflammatory activity in mouse BV-2 cells assessed as reduction in LPS-induced TNF-alpha production incubated for 6 hrs followed by LPS addition measured after 24 hrs by ELISA; assay type: functional, cell-based; settings: time 30.0 hrs
BV-2 [25] = assay: Anti-neuroinflammatory activity in mouse BV-2 cells assessed as reduction in LPS-induced IL-6 production incubated for 6 hrs followed by LPS addition measured after 24 hrs by ELISA; assay type: functional, cell-based; settings: time 30.0 hrs
[26] = Stability of the compound in serum (unknown origin) assessed as drug degradation incubated for 8 hrs by HPLC analysis; assay type: ADME, cell-free
[27] = Drug degradation in serum (unknown origin) incubated for 12 hrs by HPLC analysis; assay type: ADME, cell-free; settings: read-out: Drug degradation
[28] = Acute toxicity in Kunming mouse assessed as behavioral abnormalities at 625 to 2500 mg/kg,po administration for 4 hrs; assay type: organism-based; settings: in vivo, dose 625-2500 mg/kg
[29] = Acute toxicity in Kunming mouse assessed as change in body weight at 625 to 2500 mg/kg,po administration for 14 days; assay type: organism-based; settings: in vivo, 336 h, dose 625-2500 mg/kg, time 14 day
[30] = Acute toxicity in Kunming mouse assessed as heart pathological change at 625 to 2500 mg/kg,po administration for 14 days by Hematoxylin and eosin based staining analysis; assay type: organism-based; settings: in vivo, 336 h, dose 625-2500 mg/kg, time 14 day
[31] = Acute toxicity in Kunming mouse assessed as liver pathological change at 625 to 2500 mg/kg,po administration for 14 days by Hematoxylin and eosin based staining analysis; assay type: organism-based; settings: in vivo, 336 h, dose 625-2500 mg/kg, time 14 day
[32] = Acute toxicity in Kunming mouse assessed as lung pathological change at 625 to 2500 mg/kg,po administration for 14 days by Hematoxylin and eosin based staining analysis; assay type: organism-based; settings: in vivo, 336 h, dose 625-2500 mg/kg, time 14 day
[33] = Acute toxicity in Kunming mouse assessed as kidney pathological change at 625 to 2500 mg/kg,po administration for 14 days by Hematoxylin and eosin based staining analysis; assay type: organism-based; settings: in vivo, 336 h, dose 625-2500 mg/kg, time 14 day
[34] = Acute toxicity in Kunming mouse assessed as brain pathological change at 625 to 2500 mg/kg,po administration for 14 days by Hematoxylin and eosin based staining analysis; assay type: organism-based; settings: in vivo, 336 h, dose 625-2500 mg/kg, time 14 day
Mus musculus [35] = assay: Antialzheimer activity in scopolamine-induced cognitive impairment Kunming mouse model assessed as increase in latency at po administration by step-down assay; assay type: functional, organism-based
Mus musculus [36] = assay: Antialzheimer activity in scopolamine-induced cognitive impairment Kunming mouse model assessed as decrease in number of latency error at po administration by step-down assay; assay type: functional, organism-based
Mus musculus [37] = assay: Antialzheimer activity in scopolamine-induced cognitive impairment Kunming mouse model assessed as increase in latency at 15 mg/kg,po administration by step-down assay; assay type: functional, organism-based
Mus musculus [38] = assay: Antialzheimer activity in scopolamine-induced cognitive impairment Kunming mouse model assessed as increase in latency at 7.5 mg/kg,po administration by step-down assay; assay type: functional, organism-based

Cholinesterase (Homo sapiens), sequence (P06276 whole entry): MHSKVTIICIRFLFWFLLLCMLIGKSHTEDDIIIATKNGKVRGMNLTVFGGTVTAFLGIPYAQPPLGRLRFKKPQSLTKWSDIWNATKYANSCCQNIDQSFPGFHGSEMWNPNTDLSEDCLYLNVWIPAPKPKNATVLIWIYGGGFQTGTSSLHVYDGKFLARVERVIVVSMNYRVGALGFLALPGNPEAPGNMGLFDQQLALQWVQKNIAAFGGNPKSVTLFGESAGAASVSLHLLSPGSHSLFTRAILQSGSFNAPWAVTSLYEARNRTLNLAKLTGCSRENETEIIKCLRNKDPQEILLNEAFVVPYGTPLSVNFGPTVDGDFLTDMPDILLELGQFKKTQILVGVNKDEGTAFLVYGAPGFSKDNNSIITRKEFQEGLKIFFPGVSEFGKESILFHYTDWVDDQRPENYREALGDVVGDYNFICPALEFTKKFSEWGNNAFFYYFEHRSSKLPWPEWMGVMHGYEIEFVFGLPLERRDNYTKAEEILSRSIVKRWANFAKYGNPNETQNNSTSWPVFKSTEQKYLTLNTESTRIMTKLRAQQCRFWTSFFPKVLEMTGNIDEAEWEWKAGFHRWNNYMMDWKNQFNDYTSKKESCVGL
Acetylcholinesterase (Electrophorus electricus, UniProt O42275), sequence (O42275 whole entry): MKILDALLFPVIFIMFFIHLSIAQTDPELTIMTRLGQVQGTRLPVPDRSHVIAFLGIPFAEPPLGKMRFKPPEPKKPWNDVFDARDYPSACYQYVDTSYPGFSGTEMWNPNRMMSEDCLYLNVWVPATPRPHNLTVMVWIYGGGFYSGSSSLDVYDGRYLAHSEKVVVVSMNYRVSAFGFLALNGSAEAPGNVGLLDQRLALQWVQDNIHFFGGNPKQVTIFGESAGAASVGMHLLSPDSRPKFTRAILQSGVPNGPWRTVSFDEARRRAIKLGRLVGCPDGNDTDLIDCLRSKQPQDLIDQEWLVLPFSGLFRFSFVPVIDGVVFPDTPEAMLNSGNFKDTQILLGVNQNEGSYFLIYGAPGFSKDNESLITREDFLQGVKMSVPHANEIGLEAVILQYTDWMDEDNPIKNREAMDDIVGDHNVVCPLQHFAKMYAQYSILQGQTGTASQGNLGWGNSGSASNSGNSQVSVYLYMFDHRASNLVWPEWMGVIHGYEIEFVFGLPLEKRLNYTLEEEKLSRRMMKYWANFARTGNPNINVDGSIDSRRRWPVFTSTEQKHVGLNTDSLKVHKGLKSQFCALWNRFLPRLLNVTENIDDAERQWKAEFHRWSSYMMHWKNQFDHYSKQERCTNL
Cholinesterase (Equus caballus), sequence (P81908 whole entry): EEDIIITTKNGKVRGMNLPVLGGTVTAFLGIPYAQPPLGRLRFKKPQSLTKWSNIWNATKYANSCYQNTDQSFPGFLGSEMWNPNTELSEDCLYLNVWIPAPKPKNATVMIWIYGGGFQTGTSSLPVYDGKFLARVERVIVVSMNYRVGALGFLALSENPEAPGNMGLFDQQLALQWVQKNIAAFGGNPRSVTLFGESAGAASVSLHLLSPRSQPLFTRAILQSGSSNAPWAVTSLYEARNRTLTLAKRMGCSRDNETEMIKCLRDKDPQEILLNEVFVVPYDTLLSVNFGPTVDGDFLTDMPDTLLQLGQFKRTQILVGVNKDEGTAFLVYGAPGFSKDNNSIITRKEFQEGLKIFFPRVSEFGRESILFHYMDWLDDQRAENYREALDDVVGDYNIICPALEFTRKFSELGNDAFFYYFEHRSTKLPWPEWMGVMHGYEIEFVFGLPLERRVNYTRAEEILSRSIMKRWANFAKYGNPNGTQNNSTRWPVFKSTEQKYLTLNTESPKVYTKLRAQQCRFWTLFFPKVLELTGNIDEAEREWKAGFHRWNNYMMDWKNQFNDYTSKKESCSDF
Acetylcholinesterase (Homo sapiens, UniProt P22303), sequence (P22303 whole entry): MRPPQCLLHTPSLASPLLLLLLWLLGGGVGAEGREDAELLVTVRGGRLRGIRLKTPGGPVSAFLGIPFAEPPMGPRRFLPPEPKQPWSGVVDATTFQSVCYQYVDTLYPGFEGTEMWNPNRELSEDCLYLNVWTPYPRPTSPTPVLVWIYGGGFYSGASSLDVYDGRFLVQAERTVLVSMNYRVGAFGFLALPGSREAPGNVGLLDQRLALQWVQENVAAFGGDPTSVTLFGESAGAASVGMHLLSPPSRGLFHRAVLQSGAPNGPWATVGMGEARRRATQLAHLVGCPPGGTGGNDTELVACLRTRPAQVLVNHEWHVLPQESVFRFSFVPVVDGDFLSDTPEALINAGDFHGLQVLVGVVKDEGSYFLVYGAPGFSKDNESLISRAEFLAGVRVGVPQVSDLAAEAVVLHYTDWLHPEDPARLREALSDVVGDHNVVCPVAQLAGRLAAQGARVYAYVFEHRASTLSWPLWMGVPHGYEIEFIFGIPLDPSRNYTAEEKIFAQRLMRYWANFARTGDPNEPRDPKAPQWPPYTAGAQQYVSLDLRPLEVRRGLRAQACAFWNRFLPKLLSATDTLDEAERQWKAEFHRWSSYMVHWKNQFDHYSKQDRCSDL

Compound: COC(=O)/C=C/C(=O)Nc1cccc(OCCCCSC(=S)N(C)C)c1
- IC50 (Acetylcholinesterase [1]): 56.5 µM
- inhibition [2]: 7.25%

Compound: COC(=O)/C=C/C(=O)Nc1ccc(OCCCCSC(=S)N2CCCCC2C)cc1 (centres undefined)
- IC50 (Acetylcholinesterase [1]): 0.49 µM
- inhibition [2]: 18%
- IC50 (Acetylcholinesterase [3]): 380 nM
- inhibition [4]: < 5%
- Papp at 18 h (in vitro): 12.7 ×10⁻⁶ cm/s

Compound: COC(=O)/C=C/C(=O)Nc1cccc(OCCCCSC(=S)N2CCCC2)c1
- IC50 (Acetylcholinesterase [1]): 8.14 µM
- inhibition [2]: 8.8%
- IC50 (Acetylcholinesterase [3]): 6040 nM
- inhibition [4]: < 5%
- Papp at 18 h (in vitro): 10.4 ×10⁻⁶ cm/s

Compound: COC(=O)/C=C/C(=O)Nc1cccc(OCCCCSC(=S)N2CCCCC2C)c1 (centres undefined)
- IC50 (Acetylcholinesterase [1]): 0.088 µM
- inhibition [2]: 7.5%
- IC50 (Acetylcholinesterase [3]): 53 nM
- inhibition [4]: < 5%
- Activity (BV-2 [5]): Non-Toxic
- Activity (BV-2 [6]): Tde
- Activity (BV-2 [7]): Active
- Activity (BV-2 [8]): inactive
- Activity (BV-2 [9]): Dose-Dependent Effect
- Activity [10]: Dose-Dependent Effect
- Activity [11]: Dose-Dependent Effect
- Activity [12]: Dose-Dependent Effect
- Activity [13]: Tde
- Activity [14]: Tde
- Activity [15]: Tde
- Activity [16]: Active
- Activity [17]: Active
- Activity [18]: Active
- Activity (BV-2 [19]): Dose-Dependent Effect
- Activity (BV-2 [20]): Dose-Dependent Effect
- Activity (BV-2 [21]): Dose-Dependent Effect
- Activity (BV-2 [22]): Active
- Activity (BV-2 [23]): Active
- Activity (BV-2 [24]): Dose-Dependent Effect
- Activity (BV-2 [25]): Dose-Dependent Effect
- Stability [26]: Unstable
- metabolised at 12 h [27]: 50%
- Activity [28]: Non-Toxic
- Activity [29]: Non-Toxic
- Activity [30]: Non-Toxic
- Activity [31]: Non-Toxic
- Activity [32]: Non-Toxic
- Activity [33]: Non-Toxic
- Activity [34]: Non-Toxic
- Activity (Mus musculus [35]): Dose-Dependent Effect
- Activity (Mus musculus [36]): Dose-Dependent Effect
- Activity (Mus musculus [37]): Active
- Activity (Mus musculus [38]): inactive
- Papp at 18 h (in vitro): 17.9 ×10⁻⁶ cm/s

Compound: COC(=O)/C=C/C(=O)Nc1cccc(OCCCCSC(=S)N2CCCCC2)c1
- IC50 (Acetylcholinesterase [1]): 0.37 µM
- inhibition [2]: < 5%
- IC50 (Acetylcholinesterase [3]): 210 nM
- inhibition [4]: < 5%
- Papp at 18 h (in vitro): 15.5 ×10⁻⁶ cm/s

Compound: COC(=O)/C=C/C(=O)Nc1cccc(OCCCCSC(=S)N2CCOCC2)c1
- IC50 (Acetylcholinesterase [1]): 74.2 µM
- inhibition [2]: 6.88%

Compound: COC(=O)/C=C/C(=O)Nc1cccc(OCCCCSC(=S)N2CCC(N3CCCCC3)CC2)c1
- IC50 (Acetylcholinesterase [1]): 12.7 µM
- inhibition [2]: 5.6%

Compound: COC(=O)/C=C/C(=O)Nc1cccc(OCCCCCSC(=S)N2CCCCC2)c1
- IC50 (Acetylcholinesterase [1]): 26.7 µM
- inhibition [2]: < 5%

Compound: COC(=O)/C=C/C(=O)Nc1cccc(OCCCCSC(=S)N2CCC(O)CC2)c1
- IC50 (Acetylcholinesterase [1]): 76.5 µM
- inhibition [2]: 10.1%
